# Molecular target: E275C gp120 (Human immunodeficiency virus type 1 group M subtype B, UniProt P35961, E271C)
# Assay: covalent labeling
# Type: biochemical, HIV-1
# Conditions: α-biotin Western blot, reactants in 2-fold excess (Figure 3)
smiles,measurement,value
"O=C(CCCC[C@@H]1SC[C@@H]2NC(=O)N[C@@H]21)NCCOCCOCCNC(=O)CCN1C(=O)C=CC1=O [MPB, Maleimide-PEG2-biotin, reference compound]",biotinylation (labeling) of E275C gp120,yields significantly lower

# Source: publication PMC4045323 (Biochemistry, 2014)
